Test results: publication doi:10.1101/430959v1, “The chemistry and pharmacology of putative synthetic cannabinoid receptor agonist (SCRA) new psychoactive substances (NPS) 5F-PY-PICA, 5F-PY-PINACA, and their analogues” (biorxiv, 2018)
Read-outs that look alike come from different tables or passages of the source.

Legend:
[1] = molecular target: T1, human CB2 (AtT20-CB2) (Homo sapiens, UniProt P34972); assay: cell-based; details: for Emax: read-out: hCB2 Max (% CP 55,940); for EC50: read-out: hCB2 pEC50 (converted)
T1 construct: gene CNR2; full-length, stably transfected in mouse AtT20 cells
T1 sequence (P34972 whole entry): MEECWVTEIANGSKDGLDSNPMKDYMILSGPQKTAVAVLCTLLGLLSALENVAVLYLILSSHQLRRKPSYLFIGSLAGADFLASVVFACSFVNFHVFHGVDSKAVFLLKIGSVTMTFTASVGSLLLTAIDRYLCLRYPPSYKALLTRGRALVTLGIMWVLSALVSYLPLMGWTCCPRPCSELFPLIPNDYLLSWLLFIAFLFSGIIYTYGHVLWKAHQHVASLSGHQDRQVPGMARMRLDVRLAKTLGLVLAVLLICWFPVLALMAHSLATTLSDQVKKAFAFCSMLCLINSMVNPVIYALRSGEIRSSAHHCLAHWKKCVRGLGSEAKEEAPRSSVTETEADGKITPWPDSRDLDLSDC
Method: (§1) Mouse AtT20 neuroblastoma cells stably transfected with human CB1 or human CB2 have been previously described.[43] and were cultured in Dulbecco’s modified Eagle’s medium (DMEM) containing 10% fetal bovine serum (FBS), 100 U penicillin/streptomycin, and 80 μg/mL hygromycin (InvivoGen, San Diego, CA, USA). Cells were passaged at 80% confluency as required. Cells for assays were grown in 75 cm2 flasks and used at 90% confluence. The day before the assay cells were detached from the flask with trypsin/EDTA (Sigma) and resuspended in 10 mL of Leibovitz’s L-15 media supplemented with 1% FBS, 100 U penicillin/streptomycin and 15 mM glucose. The cells were plated in volume of 90 μL in black walled, clear bottomed 96-well microplates (Corning) which had been precoated with poly-L-lysine (Sigma, Australia). Cells were incubated overnight at 37 °C in ambient CO2. Membrane potential was measured using a FLIPR Membrane Potential Assay kit (blue) from Molecular Devices, as described previously.[46] The dye was reconstituted with assay buffer of composition (mM): NaCl 145, HEPES 22, Na2HPO4 0.338, NaHCO3 4.17, KH2PO4 0.441, MgSO4 0.407, MgCl2 0.493, CaCl2 1.26, glucose 5.56 (pH 7.4, osmolarity 315 ± 5). Prior to the assay, cells were loaded with 90 μL/well of the dye solution without removal of the L-15, giving an initial assay volume of 180 μL/well. Plates were then incubated at 37 °C at ambient CO2 for 45 min. Fluorescence was measured using a FlexStation 3 (Molecular Devices) microplate reader with cells excited at a wavelength of 530 nm and emission measured at 565 nm. Baseline readings were taken every 2 s for at least 2 min, at which time either drug or vehicle was added in a volume of 20 μL. The background fluorescence of cells without dye or dye without cells was negligible. Changes in fluorescence were expressed as a percentage of baseline fluorescence after subtraction of the changes produced by vehicle addition. The final concentration of DMSO was 0.1%. Data were analyzed with PRISM (GraphPad Software Inc., San Diego, CA), using four-parameter nonlinear regression to fit concentration-response curves. In all plates, a maximally effective concentration of CP 55,940 was added to allow for normalization between assays.

[2] = molecular target: T2, HA-hCB2 (Homo sapiens, UniProt P34972); assay: [3H]CP55, […] competition, membranes; type: binding
T2 construct: gene CNR2
T2 sequence (P34972 whole entry): as above

[3] = molecular target: T1, human CB2 (AtT20-CB2); assay: FLIPR membrane potential assay, AtT20 cells; type: cell-based
From the text: FLIPR membrane potential assay, AtT20 cells on human CB2 (AtT20-CB2)

[4] = molecular target: T3, HA-hCB1 (Homo sapiens, UniProt P21554); assay: [3H]SR141716A competition, membranes; type: binding
T3 construct: gene CNR1
T3 sequence (P21554 whole entry): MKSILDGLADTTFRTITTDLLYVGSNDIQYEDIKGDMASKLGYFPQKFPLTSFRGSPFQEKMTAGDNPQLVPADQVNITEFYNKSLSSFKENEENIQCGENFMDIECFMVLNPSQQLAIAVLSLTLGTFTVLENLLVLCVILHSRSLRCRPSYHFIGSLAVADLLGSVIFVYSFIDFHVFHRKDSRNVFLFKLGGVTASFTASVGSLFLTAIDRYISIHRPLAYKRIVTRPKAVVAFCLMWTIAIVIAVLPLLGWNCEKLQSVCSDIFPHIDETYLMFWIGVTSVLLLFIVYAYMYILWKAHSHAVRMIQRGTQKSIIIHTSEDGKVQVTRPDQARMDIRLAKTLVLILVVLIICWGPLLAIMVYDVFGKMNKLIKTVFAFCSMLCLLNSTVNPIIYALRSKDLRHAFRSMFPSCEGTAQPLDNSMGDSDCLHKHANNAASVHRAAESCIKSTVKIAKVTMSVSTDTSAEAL

[5] = molecular target: T4, human CB1 (AtT20-CB1) (Homo sapiens, UniProt P21554); assay: cell-based; details: read-out: % activation
T4 construct: gene CNR1; full-length, stably transfected in mouse AtT20 cells
T4 sequence (P21554 whole entry): as above
Method: as §1

[6] = molecular target: T2, HA-hCB2; assay: biochemical; set-up: species or system HEK 293; details: read-out: hCB2 pKi (converted)

| SMILES | Emax [1] [%] | Ki [2] [nM] | EC50 [3] [nM] | Ki [4] [nM] | Ki ([2]; read-out: Ki) [nM] | EC50 ([3]; read-out: EC50) [nM] | Ki ([4]; read-out: pKi (converted)) [nM] | activity at 10 µM [5] [%] | activity at 10 µM ([1]; read-out: % activation) [%] | EC50 [1] [nM] | Ki [6] [nM] |
| --- | --- | --- | --- | --- | --- | --- | --- | --- | --- | --- | --- |
| O=C(c1cn(CCCCCF)c2ccccc12)N1CCCC1 [compound 5, (1-(5-Fluoropentyl)-1H-indol-3-yl)(pyrrolidin-1-yl)methanone] | 50 ± 3 | 1740 | 338 | > 10000 | – | – | – | – | – | – | – |
| O=C(c1cn(CCCCCF)c2ccccc12)N1CCCCC1 [compound 7, (1-(5-Fluoropentyl)-1H-indol-3-yl)(piperidin-1-yl)methanone] | 64 ± 3 | – | – | – | 363 | 36.3 | > 10000 | – | – | – | – |
| O=C(c1cn(CCCCCF)c2ccccc12)N1CCCCCC1 [compound 8, Azepan-1-yl(1-(5-fluoropentyl)-1H-indol-3-yl)methanone] | 72 ± 3 | – | – | – | 102 | 29 | > 10000 | – | – | – | – |
| CCN(CC)C(=O)c1cn(CCCCCF)c2ccccc12 [compound 9, 1-(5-Fluoropentyl)-N,N-diethyl-1H-indole-3-carboxamide] | 53 ± 4 | – | – | – | 1020 | 137 | > 10000 | 0 | – | – | – |
| CN(C)C(=O)c1cn(CCCCCF)c2ccccc12 [compound 10, 1-(5-Fluoropentyl)-N,N-dimethyl-1H-indole-3-carboxamide] | – | – | – | – | > 10000 | – | > 10000 | 9 ± 4 | 11 ± 2 | – | – |
| CCCCn1cc(C(=O)N2CCCC2)c2ccccc21 [compound 11, (1-Butyl-1H-indol-3-yl)(pyrrolidin-1-yl)methanone] | 63 ± 9 | – | – | – | > 10000 | – | > 10000 | 16 ± 9 | – | 468 | – |
| CCCCCn1cc(C(=O)N2CCCC2)c2ccccc21 [compound 12, (1-Pentyl-1H-indol-3-yl)(pyrrolidin-1-yl)methanone] | 54 ± 7 | – | – | – | – | – | > 10000 | 1 ± 3 | – | 234 | 3240 |
| O=C(c1cn(Cc2ccc(F)cc2)c2ccccc12)N1CCCC1 [compound 13, (1-(4-Fluorobenzyl)-1H-indol-3-yl)(pyrrolidin-1-yl)methanone] | 38 ± 13 | – | – | – | – | – | > 10000 | 12 ± 2 | – | 363 | 3550 |
| O=C(c1cn(CC2CCCCC2)c2ccccc12)N1CCCC1 [compound 14, (1-(Cyclohexylmethyl)-1H-indol-3-yl)(pyrrolidin-1-yl)methanone] | 38 ± 3 | – | – | – | – | – | > 10000 | – | – | 135 | 1070 |
